Patent publication US8846636B2, “Nucleoside analogues with quaternary carbon stereogenic centers and methods of use” (LCB Pharma Inc., priority 2008, dated 2014)

Legend:
Format in all cases: cell-based
[1] = system: ZR-75-1; assay: MTT cell proliferation assay, ZR-75-1; conditions: Homo sapiens; ZR-75-1 cell line (mammary gland; breast)
Procedure: (§1) The antiviral and antitumor activities of the compounds of the invention were evaluated by a cellular proliferation assay. The MTT [3-(4,5-dimethylthiazol-2-yl)-2,5-diphenyltetrazolium bromide] assay, first described by Mosmann (Mosmann T., “Rapid colorimetric assay for cellular growth and survival: application to proliferation and cytotoxicity assays,” J. Immunol. Methods 1983 Dec. 16; 65(1-2):55-63, and incorporated by reference in its entirety) is based on the ability of a mitochondrial dehydrogenase enzyme from viable cells to cleave the tetrazolium rings of the pale yellow MTT. The cleavage reaction form a dark blue formazan crystals which is largely impermeable to cell membranes and accumulation within healthy cells. Solubilisation of the cells by the addition of a detergent liberates and solubilizes the crystals. The number of surviving cells is directly proportional to the level of the formazan product created. The color can then be quantified using a simple colorimetric assay. The results can be read on a multiwell scanning spectrophotometer (ELISA reader).
(§2) In Tables 1 and 2, IC50 values are presented for various cell lines in micromolar units (μm), “Gemci” is Gemcitabine, and “5-FU” is 5-fluorouracil.

[2] = system: NCI H2052; assay: MTT cell proliferation assay, NCI H2052; conditions: Homo sapiens; NCI H2052 cell line (tumor stage 4 derived from pleural effusion)
Procedure: as §1, §2

[3] = system: HCT 116; assay: MTT cell proliferation assay, HCT 116; conditions: Homo sapiens; HCT 116 cell line (colon)
Procedure: as §1, §2

[4] = system: MCF7; assay: MTT cell proliferation assay, MCF7; conditions: Homo sapiens; MCF7 cell line (mammary gland; breast)
Procedure: as §1, §2

[5] = system: OVCAR3; assay: MTT cell proliferation assay, OVCAR3; conditions: Homo sapiens, OVCAR-3; OVCAR3 cell line (ovary)
Procedure: as §1, §2

[6] = system: PFSK-1; assay: MTT cell proliferation assay, PFSK-1; conditions: Homo sapiens; PFSK-1 cell line (brain)
Procedure: as §1, §2

[7] = system: DLD-1; assay: MTT cell proliferation assay, DLD-1; conditions: Homo sapiens; DLD-1 cell line (colon)
Procedure: as §1, §2

[8] = system: HCC1143; assay: MTT cell proliferation assay, HCC1143; conditions: Homo sapiens; HCC1143 cell line (mammary gland; breast)
Procedure: as §1, §2

[9] = system: 786-O; assay: MTT cell proliferation assay, 786-O; conditions: Homo sapiens, 786-0; 786-O cell line (kidney)
Procedure: as §1, §2

[10] = system: 22Rv1; assay: MTT cell proliferation assay, 22Rv1; conditions: Homo sapiens; 22Rv1 cell line (prostate)
Procedure: as §1, §2

[11] = system: HL-60; assay: MTT cell proliferation assay, HL-60; conditions: Homo sapiens; HL-60 cell line (acute promyelocytic leukemia)
Procedure: as §1, §2

[12] = system: BxPC-3; assay: MTT cell proliferation assay, BxPC-3; conditions: Homo sapiens; BxPC-3 cell line (pancreas)
Procedure: as §1, §2

[13] = system: MOLT-4; assay: MTT cell proliferation assay, MOLT-4; conditions: Homo sapiens, MOLT-4, MOLT-4 cell line (acute lymphoblastic leukemia)
Procedure: as §1, §2

[14] = system: 1A6; assay: MTT cell proliferation assay, 1A6; conditions: 1A6 cell line (urinary bladder)
Procedure: as §1, §2

[15] = system: Colo 829; assay: MTT cell proliferation assay, Colo 829; conditions: Homo sapiens; Colo 829 cell line (skin)
Procedure: as §1, §2

[16] = system: NCI H1395; assay: MTT cell proliferation assay, NCI H1395; conditions: Homo sapiens, NCI-H1395, NCI H1395 cell line (lung)
Procedure: as §1, §2

Row | IC50 [3] [µM] | IC50 [4] [µM] | IC50 [5] [µM] | IC50 [7] [µM] | IC50 [8] [µM] | IC50 [9] [µM] | IC50 [10] [µM] | IC50 [11] [µM] | IC50 [12] [µM] | IC50 [13] [µM] | IC50 [15] [µM] | SMILES | IC50 [1] [µM] | IC50 [2] [µM] | IC50 [6] [µM] | IC50 [14] [µM] | IC50 [16] [µM]
1 | > 100 | > 100 | > 100 | > 100 | > 100 | > 100 | > 100 | > 100 | > 100 | 80 | > 100 | C[C@]1(C(=O)NN)[C@@H](CO)O[C@@H](n2cc(F)c(N)nc2=O)[C@@H]1O [LCB-1085, (2S,3R,4R,5R)-5-(4-amino-5-fluoro-2-oxopyrimidin-1(2H)-yl)-4-hydroxy-2-(hydroxymethyl)-3-methyltetrahydrofuran-3-carbohydrazide] | > 100 | > 100 | > 100 | > 100 | > 100
2 | > 500 | > 500 | > 500 | > 500 | > 500 | > 500 | > 500 | > 500 | > 500 | > 500 | > 500 | CC1(CO)C(O)C(n2cnc3c(N)nc(Cl)nc32)O[C@@H]1CO (stereo in doubt) [LCB-1091, ((2S,3R,4R,5R)-5-(6-amino-2-chloro-9H-purin-9-yl)-4-hydroxy-3-methyltetrahydrofuran-2,3-diyl)dimethanol] | > 500 | > 500 | > 500 | > 500 | > 500
